In publication PMC9298352, “Design, Synthesis and Structural Analysis of Glucocerebrosidase Imaging Agents” (Chemistry (Weinheim an Der Bergstrasse, Germany), 2021):

Experiments:
[1] = target: T1, recombinant human GAA (rhGAA, Myozyme) (Homo sapiens, UniProt P10253); test: In vitro apparent IC50, fluorogenic substrate assay on rhGAA; format: biochemical
T1 construct: purchased Sanofi Genzyme (Cambridge, MA, USA)
Method: All assays were performed in duplicate sets, each with 3 technical replicates at each inhibitor concentration. DMSO concentration was kept at 0.5 %–1 % (v/v) in all assays during incubation with compounds. In vitro apparent IC50 values were calculated by fitting data with [inhibitor] vs. response‐various slope (four parameters) function using Graphpad Prism 7.0 software. Average values and standard deviations were calculated from the two sets.

rhGBA = target: T2, rhGBA (Homo sapiens, UniProt P04062); test: Titration of ABP 6 and ABP 9 with constant rhGBA (gel-based labelling); format: biochemical; conditions: constant rhGBA 200 nM, ABP 150–0.001 nM, 37 °C, 30 mins
T2 construct: made in house; host or cells: insect-baculovirus expression vector system (BEVS)
T2 sequence (P04062 40-536): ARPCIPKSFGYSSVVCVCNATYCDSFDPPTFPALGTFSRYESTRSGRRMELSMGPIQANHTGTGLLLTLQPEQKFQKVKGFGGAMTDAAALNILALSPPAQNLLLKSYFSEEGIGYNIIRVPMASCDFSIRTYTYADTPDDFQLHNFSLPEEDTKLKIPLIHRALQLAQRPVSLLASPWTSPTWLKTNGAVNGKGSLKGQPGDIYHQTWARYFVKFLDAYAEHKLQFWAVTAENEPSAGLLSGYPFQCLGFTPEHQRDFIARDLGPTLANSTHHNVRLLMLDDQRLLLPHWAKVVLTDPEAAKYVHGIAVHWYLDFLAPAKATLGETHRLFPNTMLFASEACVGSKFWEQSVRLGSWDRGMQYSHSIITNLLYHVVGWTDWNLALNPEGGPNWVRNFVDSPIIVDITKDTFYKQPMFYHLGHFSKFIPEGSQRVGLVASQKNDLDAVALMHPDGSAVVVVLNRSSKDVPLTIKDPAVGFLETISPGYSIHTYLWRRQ
Method: Maximum‐likelihood/σA weighted (2Fo–Fc) electron density map contoured to 1.0 σ (a=1.31 e^−/Å^3). […] Fluorescently labelled rhGBA visualized by Cy5 fluorescent readout. D=denatured protein sample.
The reactions were incubated at 37 °C for 30 mins and denatured with Laemmli (x3) sample buffer at 95 °C for 5 minutes. The samples were resolved by electrophoresis in 10 % SDS‐PAGE gels, running at 200 V for ∼50 minutes. Wet slab gels were scanned on fluorescence using an Amersham Typhoon 5 Imager (GE Healthcare) with λEX 635 nm; λEM >665 nm.

[2] = target: T3, endogenous GBA in HEK293T cells (Homo sapiens, UniProt P04062); test: In situ labeling of GBA in living HEK293T cells (gel-based ABPP); format: cell-based; conditions: 1–1000 nM, 24 h, 37 °C
T3 construct: endogenous in cells; host or cells: HEK293T
T3 sequence (P04062 40-536): T2 sequence (P04062 40-536)
Method: (§1) HEK293T cells containing endogenous GBA and overexpressed GBA2 were treated with the ABPs at different concentrations (1–1000 nM) for 24 hr. Cells were then washed, lysed and the fluorescence was visualized by gel‐based ABPP (Figure 8).
(§2) CBB, Coomassie Brilliant Blue staining (bottom panel).
(§3) Labelling of HEK293T cells, containing endogenous GBA and overexpressed GBA2, with ABPs 6, 8 and 9 was conducted based on previously described methods[69] as outlined in the Supporting Information (page 7).
(§4) Cy5 tetrazine 20 (2.83 mg, 4.3 µmol) was added to a solution of norbornene 19 (0.94 mg, 2.38 µmol) in MeOH (4 mL). After stirring overnight at rt, the reaction mixture was concentrated in vacuo and purified by HPLC under neutral conditions (A: 50 mM NH4HCO3 in H2O; B: MeCN; 49% → 52%, A in […]
(§5) Biochemical Methods: General Experimental Details
(§6) Recombinant human GBA (rhGBA, imiglucerase, Cerezyme®) and GAA (rhGAA, alglucosidase alfa, Myozyme) were obtained from Sanofi Genzyme (Cambridge, MA, USA). HEK293T (CRL-3216) cell lines were purchased from ATCC (Manassas, VA, USA). Cell lines were […]
(§7) (1 picture or pasted object on this page, not shown here)

[3] = target: T4, overexpressed GBA2 in HEK293T cells (Homo sapiens, UniProt Q9HCG7); test: In situ labeling of GBA2 in living HEK293T cells (gel-based ABPP); format: cell-based; conditions: HEK293T cells overexpressing GBA2, 1–1000 nM, 24 h, 37 °C
T4 construct: expressed in transfected cells; host or cells: HEK293T
T4 sequence (Q9HCG7 1-927): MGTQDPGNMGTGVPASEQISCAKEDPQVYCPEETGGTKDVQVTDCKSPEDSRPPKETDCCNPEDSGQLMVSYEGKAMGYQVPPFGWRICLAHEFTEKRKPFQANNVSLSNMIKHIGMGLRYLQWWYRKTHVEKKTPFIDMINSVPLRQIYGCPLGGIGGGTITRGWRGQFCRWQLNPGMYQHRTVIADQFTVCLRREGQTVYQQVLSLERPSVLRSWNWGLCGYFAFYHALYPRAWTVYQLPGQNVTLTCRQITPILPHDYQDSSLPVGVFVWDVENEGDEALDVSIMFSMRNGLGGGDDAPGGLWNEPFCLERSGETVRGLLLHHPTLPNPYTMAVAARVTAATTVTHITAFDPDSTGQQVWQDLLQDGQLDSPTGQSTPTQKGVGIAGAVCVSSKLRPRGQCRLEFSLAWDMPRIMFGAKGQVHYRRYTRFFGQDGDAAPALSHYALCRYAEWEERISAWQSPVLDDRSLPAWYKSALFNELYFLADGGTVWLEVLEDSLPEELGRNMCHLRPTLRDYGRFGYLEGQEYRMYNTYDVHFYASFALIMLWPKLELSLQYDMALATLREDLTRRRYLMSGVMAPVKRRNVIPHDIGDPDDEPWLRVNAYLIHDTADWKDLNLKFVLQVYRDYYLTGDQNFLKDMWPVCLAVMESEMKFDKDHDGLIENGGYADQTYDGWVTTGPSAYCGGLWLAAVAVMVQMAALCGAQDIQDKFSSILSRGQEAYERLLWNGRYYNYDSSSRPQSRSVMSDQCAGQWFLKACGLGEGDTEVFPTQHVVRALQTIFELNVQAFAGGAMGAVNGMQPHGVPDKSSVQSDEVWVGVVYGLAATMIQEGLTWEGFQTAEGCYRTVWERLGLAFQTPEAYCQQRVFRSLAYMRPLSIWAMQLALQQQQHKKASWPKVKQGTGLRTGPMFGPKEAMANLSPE
Method: as §1, §2, §3, §4, §5, §6, §7

## CCCCCCCCN1[C@@H]2[C@H](Cn3cc(CNC(=O)CCCCC[N+]4=C(/C=C/C=C/C=C5/N(C)c6ccccc6C5(C)C)C(C)(C)c5ccccc54)nn3)[C@@H](O)[C@H](O)[C@@H](O)[C@@H]21 (stereo partly shown) [ABP 6]
[1]
  IC50: > 100 µM
rhGBA
  gel-detection limit (ABP concentration): 1 nM
[2]
  ABP concentration at which in situ labeling of GBA is observed: 10 nM
[3]
  ABP concentration at which in situ labeling of GBA2 is observed: 100 nM
